From patent publication US20170224823A1, “PLATINUM-CATALYZED SILICONE DRUG DELIVERY DEVICES AND METHODS OF USE THEREOF” (priority 2014, published 2017)
“And” between values parts separate entries of the source, which are not always exact repeats. Equal values may be shown once.

Key:
[1] = In vitro release from addition-cured (Pt) LSR9-9508-30 matrix vaginal rings; assay type: physicochemical; conditions: for Total release, % of initial drug loading / Time after which release ceased: LSR9-9508-30 matrix rings, 21-day study; for Total release, % of initial drug loading: non-micronized LNG, micronized EE, micronized ET; for Release mechanism: LSR9-9508-30 rings, duration of the 21-day study
Text: (§1) Formulations of dapivirine (DAP or DPV) with a contraceptive hormone were investigated for use with a multipurpose prevention technology (MPT) intravaginal ring system. Dapivirine and non-micronized levonorgestrel (LNG), micronized ethinyl estradiol (EE), or micronized etonogestrel (ET) were studied in condensation cured (Sn) or addition cured (Pt) silicone systems. Matrix-type vaginal rings were manufactured by injection moulding, using either MEDS-6382 (condensation-cured) or LSR9-9508-30 (addition-cured) silicone elastomers. Release of DAP and LNG from the LSR9-9508-30 rings was diffusion-controlled for the duration of the 21-day study. Total DAP release was 41% of the initial loading, while only 29% LNG loading was released. Both drugs would have continued to be released beyond 21 days had the study had continued. However, release of EE and ET ceased after 13 and 8 days respectively, with only 36 and 23% of initial drug loading released.

[2] = In vitro release from platinum-catalyzed silicone matrix rings (200 mg dapivirine, 32 mg levonorgestrel), storage stability study; assay type: physicochemical; conditions: for Release at week-two time point: rings with micronized levonorgestrel and micronized dapivirine, stored two weeks
Description: Platinum-catalyzed silicone matrix intravaginal rings comprising 200 mg micronized dapivirine and 32 mg levonorgestrel (both micronized and non-micronized) were utilized in this study. FIGS. 1 and 2 depict the mean and cumulative daily release of dapivirine and levonorgestrel versus time for micronized levonorgestrel and micronized dapivirine on storage stability. […] For the non-micronized levonorgestrel rings, there was less than 100% recovery of the amount of levonorgestrel added in two of the rings tested for content after initial release rate testing. […] All of the levonorgestrel release rate results obtained in this study are likely to have been influenced by this phenomenon.

[3] = Raman microscopy to assess drug binding to poly(methylhydrosiloxane); assay type: physicochemical; conditions: Raman microscopy (FIG. 12)
Text: FIG. 12 depicts Raman microscopy studies to assess drug binding to poly(methylhydrosiloxane). LNG: levonorgestrel, DAP: dapivirine, PRG: progesterone, EE: Ethynyl estradiol.
To determine the binding site of compounds to the silicone polymer, Raman spectroscopy studies were undertaken. In the first study, scanning Raman microscopy was used as a method for mapping drug distribution in silicone elastomer films. Thin films were created using NuSil DDU-4320 silicone elastomer and either dapivirine, micronized levonorgestrel, or non-micronized levonorgestrel. 400 points were sampled. In the second study, Raman microscopy was used as a tool to assess binding to poly(methylhydrosiloxane).

[4] = Solubility in water; assay type: physicochemical
[5] = tested on: wild-type HIV-1 strains; conditions: cited from earlier work
[6] = tested on: HIV-1 strains harboring different resistance-inducing mutations; conditions: cited from earlier work
[7] = In vitro release from condensation-cured (Sn) MEDS-6382 matrix vaginal rings; assay type: physicochemical
Text: as §1

[8] = Recovery from NuSil DDU-4320 platinum-catalyzed silicone slabs or rings; assay type: physicochemical; conditions: DDU-4320 slab
Description: (§2) Methods for assaying the percent of compound having a terminal alkene, alkyne or carbonyl group recoverable from or covalently bound to a platinum-catalyzed silicone intravaginal drug delivery device of the invention are commonly known in the art. For example, silicone intravaginal rings, slabs or IUDs can be added to a glass flask. 5 mL of a 2.5 mg/mL norethindrone solution (NOR; present as an internal standard) in methanol can be added to the flask along with 95 mL of dichlormethane (DCM). The flask can be placed in a rotating orbital incubator set at 37° C. and 60 rpm for 72 hours. A 2 mL aliquot of the cooled extraction mixture can be transferred to a glass centrifuge tube and allowed to evaporate to dryness. The dried samples can be reconstituted in 10 mL of methanol with vortex mixing for 30 seconds and sonication for 40 minutes. A 1:10 dilution of this solution can be prepared using methanol and water such that the final solvent composition is 1:1. This solution and be analyzed by HPLC. Recovery can be expressed as a percentage of predicted compound as compared to the original amount of compound present in the silicone intravaginal ring, slab or IUD. The final data can be corrected based on the recovery of a control solution of known compound concentration that was “extracted” at the same time.
The influence of silicone polymer system cure time, and cure temperature on levonorgestrel was also investigated. With the understanding that the NuSil DDU-4320 could be cured at a lower temperature than NuSil MED-4870, process optimization proceeded with NuSil DDU-4320.
For example, at a cure temperature and time of 100° C. for 7 minutes, approximately 87% of the LNG added was recovered using non-micronized LNG, compared with only 12% for micronized LNG. LNG recovery decreased with increasing cure temperature and cure time for both the micronized and non-micronized LNG. For example, the recovery of micronized LNG falls from 35% to zero as the cure time at 100° C. is increased from 1.5 minutes to 30 minutes. Similarly, the recovery of non-micronized LNG falls from approximately 87% to 59% as the cure temperature is increased from 60° C. to 160° C. at a cure time of 7 minutes.
In an effort to define the maximum possible recovery of contraceptive using the best possible conditions for manufacture, further silicone slabs were prepared with non-micronized LNG. In this case, a low temperature manufacture at 60° C. with a cure time of 6 minutes was compared to a shorter higher temperature cure of 100° C. for 1.5 minutes. In addition, to define precisely the recovery of LNG expected from a ring compared to a slab, intravaginal rings were also prepared under the above conditions. […]

[9] = Recovery from NuSil MED-4870 platinum-catalyzed silicone slabs; assay type: physicochemical; conditions: for % LNG Recoverable: MED-4870 slab
Description: as §2
Higher cure temperatures were required for the NuSil MED-4870 system to ensure sufficient curing to allow for slab removal from the molds. […]

With Cc1cc(C)c(Nc2ccnc(Nc3ccc(C#N)cc3)n2)c(C)c1 [DAP, 4-[[4-[(2,4,6-trimethylphenyl)amino]-2-pyrimidinyl]amino]benzonitrile] the “Total release, % of initial drug loading” value [1] was 41%, the Release mechanism [1] was “diffusion-controlled” and the “Release at week-two time point” value [2] was “reasonable dapivirine release”. The “Covalent binding to the silicone polymer” value [3] was “do not covalently bind”, the “Solubility in water” value [4] was “virtually insoluble in water” and the solubility ([4]; water) was < 1 µg/mL. The “Activity against wild-type HIV-1 strains” value [5] was “potent activity” and the “Activity against HIV-1 strains harboring resistance-inducing mutations” value [6] was “potent activity”.
In the case of C#C[C@]1(O)CC[C@H]2[C@@H]3CCc4cc(O)ccc4[C@H]3CC[C@@]21C [EE, Ethynyl Estradiol], the “Time after which release ceased” value [1] is reported as 13 days, the “Total release, % of initial drug loading” value [1] is reported as 36% and the “Total release, MEDS-6382 compared with LSR9-9508-30” value [7] is reported as “greater from MEDS-6382 than LSR9-9508-30”. For the same compound, the “Covalent binding to the silicone polymer” value [3] was “covalently bind”.
For C#C[C@]1(O)CC[C@H]2[C@@H]3CCC4=CC(=O)CC[C@@H]4[C@H]3C(=C)C[C@@]21CC [ET, etonogestrel], the “Time after which release ceased” value [1] was 8 days, the “Total release, % of initial drug loading” value [1] was 23% and the “Total release, MEDS-6382 compared with LSR9-9508-30” value [7] was “greater from MEDS-6382 than LSR9-9508-30”.
With C#C[C@]1(O)CC[C@H]2[C@@H]3CCC4=CC(=O)CC[C@@H]4[C@H]3CC[C@@]21CC [LNG, 13-ethyl-17-ethynyl-17-hydroxy-1,2,6,7,8,9,10,11,12,13,14,15,16,17-tetrad-ecahydrocyclopenta[a]phenanthren-3-one] the “Total release, % of initial drug loading” value [1] was 29%, the Release mechanism [1] was “diffusion-controlled” and the “Release from platinum catalyzed silicone rings, non-micronized compared to micronized” value ([2]; non-micronized levonorgestrel) was “increased release”. The “Release of levonorgestrel detected initially (T0)” value ([2]; rings with micronized levonorgestrel) was “negligible release”, the “Release at week-two time point” value [2] was “lack of levonorgestrel release” and the “% LNG Recoverable” value ([8]; micronized, 60° C., 7 min) was 75%. For the same compound, the “% LNG Recoverable” value ([8]; micronized, 80° C., 7 min) was 50%, the “% LNG Recoverable” value ([8]; micronized, 100° C., 1.5 min) was 35% and 37% and the “% LNG Recoverable” value ([8]; micronized, 100° C., 3 min) was 25%. The “% LNG Recoverable” value ([8]; micronized, 100° C., 7 min) was 10% and 18%, the “% LNG Recoverable” value ([8]; micronized, 100° C., 15 min) was 2% and the “% LNG Recoverable” value ([8]; micronized, 100° C., 120 min) was 0%. The “% LNG Recoverable” value ([8]; micronized, 120° C., 7 min) was 0%, the “% LNG Recoverable” value ([8]; micronized, 140° C., 7 min) was 0% and the “% LNG Recoverable” value ([8]; micronized, 160° C., 7 min) was 0%. For the same compound, the “% LNG Recoverable” value ([8]; non-micronized, 80° C., 7 min) was 83%, the “% LNG Recoverable” value ([8]; non-micronized, 100° C., 3 min) was 82% and the “% LNG Recoverable” value ([8]; non-micronized, 100° C., 15 min) was 85%. The “% LNG Recoverable” value ([8]; non-micronized, 100° C., 30 min) was 80%, the “% LNG Recoverable” value ([8]; non-micronized, 100° C., 120 min) was 75% and the “% LNG Recoverable” value ([8]; non-micronized, 120° C., 7 min) was 83%. For the same compound, the “% LNG Recoverable” value ([8]; non-micronized, 140° C., 7 min) was 82% and 80%, the “% LNG Recoverable” value ([8]; non-micronized, 160° C., 7 min) was 58% and the “% LNG Recoverable” value ([8]; non-micronized, 160° C., 7 min, listed as levonorgestrel) was 59%. The “Levonorgestrel content of slab” value ([9]; NuSil MED-4870 slab heated at 160° C. for 5 minutes) was 47%, the “% LNG Recoverable” value ([9]; micronized, 120° C., 10 min) was 0% and the “% LNG Recoverable” value ([9]; micronized, 140° C., 10 min) was 0%. The “% LNG Recoverable” value ([9]; micronized, 160° C., 1.5 min) was 0%, the “% LNG Recoverable” value ([9]; micronized, 160° C., 7 min) was 0% and the “% LNG Recoverable” value ([9]; micronized, 160° C., 10 min) was 0%. For the same compound, the “% LNG Recoverable” value ([9]; micronized, 160° C., 15 min) was 0%, the “% LNG Recoverable” value ([9]; micronized, 160° C., 20 min) was 0% and the “% LNG Recoverable” value ([9]; micronized, 160° C., 30 min) was 0%. The “% LNG Recoverable” value ([9]; micronized, 160° C., 120 min) was 0%, the “% LNG Recoverable” value ([9]; micronized, 180° C., 10 min) was 0% and the “% LNG Recoverable” value ([9]; micronized, 200° C., 10 min) was 0%. The “% LNG Recoverable” value ([9]; non-micronized, 120° C., 10 min) was 65%, the “% LNG Recoverable” value ([9]; non-micronized, 140° C., 10 min) was 55% and the “% LNG Recoverable” value ([9]; non-micronized, 160° C., 1.5 min) was 65%. For the same compound, the “% LNG Recoverable” value ([9]; non-micronized, 160° C., 7 min) was 47%, the “% LNG Recoverable” value ([9]; non-micronized, 160° C., 10 min) was 60% and the “% LNG Recoverable” value ([9]; non-micronized, 160° C., 15 min) was 33%. For the same compound, the “% LNG Recoverable” value ([9]; non-micronized, 160° C., 20 min) was 28%, the “% LNG Recoverable” value ([9]; non-micronized, 160° C., 30 min) was 10% and the “% LNG Recoverable” value ([9]; non-micronized, 160° C., 120 min) was 0%. For the same compound, the “% LNG Recoverable” value ([9]; non-micronized, 180° C., 10 min) was 8%, the “% LNG Recoverable” value ([9]; non-micronized, 200° C., 10 min) was 0% and the “Covalent binding to the silicone polymer” value [3] was “covalently bind”.
With CC(=O)[C@H]1CC[C@H]2[C@@H]3CCC4=CC(=O)CC[C@]4(C)[C@H]3CC[C@]12C [PRG, Progesterone] the “Covalent binding to the silicone polymer” value [3] was “covalently bind”.
